Where a name gives a salt, the structure may show the parent alone. Read-outs that look alike come from different tables or passages of the source.
Key:
[1] = test system: inflammatory infiltration in the lung tissues; experiment: Asthma model: H&E staining of lung tissue; settings: i.t. HOAc or HCl; i.p. NaOH
[2] = test system: C57BL/6 mice immunized with MOG35-55 (EAE); settings: for mice with clinical scores lower than at initiation of treatment: by day 4, 5 HCl mice, 9 HOAc mice; for average EAE clinical score: day 4 after initiation of treatment, saline 3.46; for inflammation in the spinal cords (histology): day 4 post initiation of treatment; for mice that reached clinical score of 4 or above: i.p. 87.5 mM, 4 doses from score 1.5-2.5, saline 10 of the 11
Procedure: Induction of experimental autoimmune encephalomyelitis (EAE), the mouse model of multiple sclerosis, was carried out as previously described. (94). (Also see https://hookelabs.com/protocols/eaeAI_C57BL6.html). […] The final antigen emulsion comprised 1.5 mg/ml of MOG35-55, 189 μg/ml of M. tuberculosis H37Ra and 50% (by volume) IFA.
Female C57BL/6 mice of 9 weeks old were acclimated at CRDAL for 1 week. On day 0, mice were immunized by s.c. (subcutaneous) injection of the antigen emulsion at 4 evenly distributed sites in the dorsal area (25 μl/site). Two hours later, the mice were i.p. injected with Pertussis Toxin (List Biological laboratories, Campbell, Calif., USA) freshly prepared in ice-cold PBS (200 ng in 100 μl PBS/mouse). On day 1, the mice received a second i.p. injection of Pertussis Toxin at the same dosage. […] Mice with clinical score of 3 or above were provided wet chows and hydrogels.
In the EAE model of Example 2, two types of experiments, i.e., therapeutic and preventive experiments, were carried out. For the therapeutic experiments, on the day when the mice first reached the clinical scores of 1.5 to 2.5, the mice received i.p. treatments with saline, or saline plus 87.5 mM HCl or HOAc. The mice received additional 3 i.p. treatments every other day. […] The mice received i.p. treatments every other day for additional 2 doses. Clinical scores of all mice were recorded daily during and after the treatment periods, but experimentation was terminated on mice that reached clinical score of 5. As specified in some experiments, mice were sacrificed, and spinal cords were collected for histology analyses.
Lungs (after BALF collection), spinal cords and intestines were harvested and fixed in 10% neural formalin (Fisher Scientific, Kalamazoo, Mich., USA). […] Periodic acid-Schiff (PAS) staining was also performed with the lung tissue sections to determine mucus secretion in the lungs as a result of the inflammatory infiltration.

[3] = test system: mediastinal lymph node (MLN) cells; settings: for percentage of Lym2 lymphocytes in MLN: saline 2.26%; for percentage of Ki-67hi B cells in Lym1: saline 3.91%; for CD8 T cells within Lym1: saline 13.9%; for percentage of Lym1 lymphocytes in MLN: saline 73.7%; for percentage of Ki-67hi Lym1 B cells: saline 4.29%; for percentage of Ki-67hi Lym2 B cells: saline 35.2%
Procedure: For the analyses of the effects of pH modifiers on lymphocyte populations and their proliferation in vivo in Example 3, the mice were sensitized, challenged with OVA and received either i.t. or i.p. treatments. The same challenge and treatment solutions as in the asthma model were used. In the first set of experiments, the mice were challenged with 60 μl of 1×OVA challenge solution without pH modifiers by i.t. injection for 2 consecutive days. One day of the second challenge, the mice received one-time i.t. treatment with saline or saline plus HCl or HOAc. The mice were sacrificed the next day by CO2 inhalation to collect lymphoid tissues. In the second set of experiments, the mice were challenged with OVA and treated with i.t. instillation of saline or saline plus HCl or HOAc or treated with i.p. injection of saline plus NaOH for a total of 3 doses as in the asthma model. On day 3 after the final challenge and treatment, mice were sacrificed by CO2 inhalation to collect lymphoid tissues.
Cells were washed 3 times with PBS then stained with Zombie viability dyes at room temperature for 20 minutes. At the end of incubation, 10% volume of FBS was added to absorb excess Zombie dyes. After washes, the cells were stained with conjugated antibodies against surface antigens on ice. As specified in some experiments, the cells were subsequently stained with fluorochrome-conjugated Avidin. For Annexin V staining, cells were washed twice with plain PBS and once with Annexin V binging buffer (10 mM HEPES, pH7.4, 140 mM NaCl, 2.5 mM CaCl2)) after surface antigen staining, and incubated with fluorochrome-conjugated Annexin V in Annexin V binding buffer for 15 min at room temperature. The cells were washed twice in Annexin V binding buffer and resuspended in Annexin V binding buffer. 7-AAD was added to the cells before analyzed by flow cytometry. For Ki-67 and Foxp3 staining, lymphocytes (after Zombie dye and surface antigen staining) or tumor cells (without surface antigen staining) were fixed and permeabilized using Foxp3 staining buffer kit, then stained with PE-conjugated anti-mouse or human Ki-67 antibodies. (Biolegend, San Diego, Calif., USA). Stained and unstained cells were analyzed on Accuri C6 Flow Cytomer (Accuri Cytometers, Inc., Ann Arbor, Mich.), FACS Canto (BD Bioscience, San Jose, Calif., USA) and Attune™ cytometer (Invitrogen, Carlsbad, Calif.). Data analyses were carried out using FlowJo X.
The DLNs are the primary location where active immune responses to local antigen exposure take place. The DLNs of the lungs are the mediastinal lymph nodes (MLNs). Two sets of experiments using the OVA sensitization and challenge models were carried out to investigate whether pH modifiers can affect lymphocyte populations and proliferation. In the first set of experiments, MLNs were collected from the mice 3 days after the first OVA challenge and 1 day after a single treatment. In the second set of experiments, MLNs were collected 7 days after the initial challenge and 3 days after the third treatments.

primary thymocytes = experiment: In vitro treatment of thymocytes in FBS, Ki-67; assay type: cell-based, mouse; settings: FBS with saline plus modifier, vs saline cultures
[4] = 1 day after single i.t. treatment
[5] = 1 day after single i.t. treatment, saline 4.5×10^7
[6] = 3 days after third treatment, saline 5.96×10^7

SMILES: CC(=O)O [HOAc, acetic acid]
- inflammatory infiltration in the lungs (H&E) [1]: diminished
- mice with clinical scores lower than at initiation of treatment [2]: 6
- average EAE clinical score [2]: 1.78
- inflammation in the spinal cords (histology) [2]: no obvious inflammation
- mice that reached clinical score of 4 or above [2]: 1 of the 9
- mice whose clinical score remained the same ([2]; mouse, in vivo): 2
- reduction of total MLN cells vs saline [3, 4]: 84%
- average number of total MLN cells [3, 5]: 0.75×10^7
- reduction of total MLN cells vs saline ([3]; 3 days after third treatment): 29%
- average number of total MLN cells [3, 6]: 4.23×10^7
- percentage of Lym2 lymphocytes in MLN ([3]; first set): 0.35%
- percentage of Ki-67hi Lym1 cells ([3]; first set, saline 3.31%): 1.65%
- percentage of Ki-67hi B cells in Lym1 ([3]; first set): 1.58%
- CD8 T cells within Lym2 ([3]; first set, saline 9.69%): 2.7%
- CD8 T cells within Lym1 ([3]; first set): 1.75%
- CD4 T cells within Lym2 ([3]; first set, saline 14.2%): 3.23%
- CD4 T cells within Lym1 ([3]; first set, saline 39.6%): 8.17%
- B cells within Lym1 ([3]; first set, saline 42.5%): 22.2%
- percentage of Ki-67hi Lym2 cells ([3]; first set, saline 54.5%): 27.2%
- B cells within Lym2 ([3]; first set, saline 62.6%): 46.9%
- percentage of Ki-67hi B cells in Lym2 ([3]; first set, saline 62.6%): 37.9%
- percentage of Lym1 lymphocytes in MLN ([3]; first set): 32.4%
- percentage of Ki-67lo cells in Lym1 ([3]; first set, saline 80.4%): 32.9%
- Ki-67 mean fluorescence intensities of Ki-67hi Lym2 and Lym2 B cells vs saline ([3]; second set): much lower
- increase of B cells within Lym1 vs saline ([3]; second set): 60.4%
- reduction of CD4 T cells within Lym1 vs saline ([3]; second set): 19.3%
- reduction of CD4 T cells within Lym2 vs saline ([3]; second set): 88%
- reduction of CD8 T cells within Lym1 vs saline ([3]; second set): 46.8%
- reduction of CD8 T cells within Lym2 vs saline ([3]; second set): 91.7%
- percentage of Ki-67hi Lym1 cells ([3]; second set, saline 2.73%): 2.67%
- CD8 T cells within Lym2 ([3]; second set, saline 4.21%): 0.35%
- percentage of Ki-67hi Lym1 B cells ([3]; second set): 2.38%
- CD4 T cells within Lym2 ([3]; second set, saline 6.91%): 0.8%
- percentage of Lym2 in MLN ([3]; second set, saline 8.10%): 38.7%
- CD8 T cells within Lym1 ([3]; second set): 7.39%
- B cells within Lym1 ([3]; second set, saline 27.3%): 43.8%
- percentage of Ki-67hi Lym2 cells ([3]; second set, saline 34.9%): 25.3%
- percentage of Ki-67hi Lym2 B cells ([3]; second set): 24.9%
- CD4 T cells within Lym1 ([3]; second set, saline 54.9%): 44.3%
- B cells within Lym2 ([3]; second set, saline 84%): 93%
- Ki-67+ cells in thymocytes after in vitro treatment (primary thymocytes): almost no Ki-67^+ cells

SMILES: [Na+].[OH-] [NaOH, sodium hydroxide]
- inflammatory infiltration in the lungs (H&E) [1]: prominent in the perivascular areas, but not very noticeable in the peribronchial areas
- increase of total MLN cells vs saline ([3]; 3 days after third i.p. treatment): 32%
- average number of total MLN cells [3, 6]: 7.9×10^7
- Ki-67 mean fluorescence intensities of Ki-67hi Lym2 and Lym2 B cells vs saline ([3]; second set): higher
- percentage of Ki-67hi Lym1 cells ([3]; second set, saline 2.73%): 3.48%
- percentage of Ki-67hi Lym1 B cells ([3]; second set): 4.23%
- percentage of Ki-67hi Lym2 cells ([3]; second set, saline 34.9%): 42.2%
- percentage of Ki-67hi Lym2 B cells ([3]; second set): 44.7%
- Ki-67+ cells in thymocytes after in vitro treatment (primary thymocytes): higher percentages of Ki-67^+ cells

SMILES: Cl [HCl, hydrochloric acid]
- inflammatory infiltration in the lungs (H&E) [1]: diminished
- mice with clinical scores lower than at initiation of treatment [2]: all
- average EAE clinical score [2]: 0.9
- inflammation in the spinal cords (histology) [2]: no obvious inflammation
- mice that reached clinical score of 4 or above [2]: none of the 5
- reduction of total MLN cells vs saline [3, 4]: 12%
- average number of total MLN cells [3, 5]: 4.0×10^7
- reduction of total MLN cells vs saline ([3]; 3 days after third treatment): 5.5%
- average number of total MLN cells [3, 6]: 5.6×10^7
- percentage of Lym2 lymphocytes in MLN ([3]; first set): 2.83%
- percentage of Ki-67hi Lym1 cells ([3]; first set, saline 3.31%): 2.92%
- percentage of Ki-67hi B cells in Lym1 ([3]; first set): 2.79%
- CD8 T cells within Lym2 ([3]; first set, saline 9.69%): 8.2%
- CD4 T cells within Lym2 ([3]; first set, saline 14.2%): 13.4%
- B cells within Lym1 ([3]; first set, saline 42.5%): 34.4%
- percentage of Ki-67hi Lym2 cells ([3]; first set, saline 54.5%): 49.1%
- B cells within Lym2 ([3]; first set, saline 62.6%): 44.8%
- percentage of Ki-67hi B cells in Lym2 ([3]; first set, saline 62.6%): 51.1%
- percentage of Lym1 lymphocytes in MLN ([3]; first set): 68.3%
- Ki-67 mean fluorescence intensities of Ki-67hi Lym2 and Lym2 B cells vs saline ([3]; second set): much lower
- percentage of Ki-67hi Lym1 cells ([3]; second set, saline 2.73%): 2.42%
- percentage of Ki-67hi Lym1 B cells ([3]; second set): 3.62%
- percentage of Ki-67hi Lym2 cells ([3]; second set, saline 34.9%): 34.9%
- percentage of Ki-67hi Lym2 B cells ([3]; second set): 35.5%
- Ki-67+ cells in thymocytes after in vitro treatment (primary thymocytes): almost no Ki-67^+ cells

— patent US20230135127A1, “COMPOSITIONS AND METHODS FOR DISEASE TREATMENT AND PREVENTION BY PH MODIFIERS AND/OR CELL PROLIFERATION INHIBITORS” (priority 2021, published 2023)
